The subject of data set [1] is Apo-B. The data set can be described thus: Apo-B secretion assay in HepG2 cells (ELISA). It counts as cell-based. As to conditions: Homo sapiens, 24 hour incubation, ELISA of growth media. As for the experimental part:
A test compound is considered to be active if it is active in any of the following screens. The activity of a compound according to the invention can be assessed by measuring inhibition of apo B secretion in HepG2 cells.
(§1) The following protocol is written for HepG2 cells types, but the same or similar protocol may be used with other cell types, such as Caco-2 cells.
(§2) HepG2 cells were grown in MEM Eagle's medium containing 10% fetal bovine serum with 1% penicillin/streptomycin in an incubator (5% CO2, 100% relative humidity, 37° C.). At ca. 85% confluency, the cells were treated with test compounds (0.2% DMSO) at appropriate concentrations in triplicate. After 24 hour incubation with the test compounds, growth media were collected from each sample. Concentrations for apo-B and apoA1 were determined using ELISA. Mouse anti-human Apo-B and ApoA1 antibody and Alk-phos conjugated secondary antibody (goat) was used in ELISA. Triplicate data in six half-log concentrations were used to calculate an IC50 value for each compound.

The subject of data set [2] is ApoA1. In words: ApoA1 secretion assay in HepG2 cells (ELISA). Type of data set: cell-based. The settings on record: Homo sapiens, 24 hour incubation, ELISA of growth media. As for the experimental part:
as §1, §2
For orientation: ELISA stands for enzyme-linked immunosorbent assay.

Data set [3] concerns Apo-B. In words: Apo-B secretion assay in Caco-2 cells (ELISA). The settings on record: Homo sapiens. Type of data set: cell-based. As for the experimental part: as §1, §2
Data set [4] concerns ApoA1. In words: ApoA1 secretion assay in Caco-2 cells (ELISA). It counts as cell-based. The settings on record: Homo sapiens. As for the experimental part: as §1, §2
In a further data set the test system is Caco-2. The data set can be described thus: Bidirectional Caco-2 permeability assay. As to conditions: bidirectional Caco-2 assay, analysis by fluorescence and HPLC. It counts as in vitro ADME. As for the experimental part:
The following table (Table 1) depicts the activity of several compounds of Formula I or II according to the present invention. Permeability was measured in a bidirectional Caco-2 assay with analysis by fluorescence and HPLC.
In general terms: Caco-2 monolayers are a common model of the intestinal barrier.

Take `O=C(Nc1ccc2c(c1)CCN(C(=S)NCc1ccccc1)C2)c1ccccc1-c1ccc(C(F)(F)F)cc1` [Compound 10]: the IC50 was 0.003 µM in the data set on Apo-B [1], above 30 µM in the data set with ApoA1 [2], 0.04 µM in the data set with Apo-B [3] and above 30 µM with ApoA1 [4]. Besides, the “Caco-2 (10-6 cm/sec)” value in the data set on Caco-2 is listed as 0 10-6 cm/sec.
Take `COc1cccc(C(=O)Nc2ccc3c(c2)CCN(C(=O)Oc2ccccc2)C3)c1-c1ccc(C(F)(F)F)cc1` [Compound 11]: the IC50 in the data set on Apo-B [1] was 0.0016 µM; with ApoA1 [2], above 30 µM; in the data set with Apo-B [3], 0.0077 µM; in the data set on ApoA1 [4], above 30 µM. The “Caco-2 (10-6 cm/sec)” value in the data set with Caco-2 is given as 0 10-6 cm/sec.
Regarding `O=C(Nc1ccc2c(c1)CCN(C(=O)OCc1ccccc1)C2)c1ccccc1-c1ccc(C(F)(F)F)cc1` [Compound 12], the IC50 in the data set on Apo-B [1] is 0.22 µM; in the data set with ApoA1 [2], above 30 µM; in the data set with Apo-B [3], 0.11 µM; with ApoA1 [4], above 30 µM. The “Caco-2 (10-6 cm/sec)” value with Caco-2 is 0 10-6 cm/sec.
Regarding `COCCCNC(=S)N1CCc2cc(NC(=O)c3ccccc3-c3ccc(C(F)(F)F)cc3)ccc2C1` [Compound 13], the IC50 with Apo-B [1] was 0.03 µM; with ApoA1 [2], above 30 µM; in the data set with Apo-B [3], 0.015 µM; in the data set with ApoA1 [4] it was above 30 µM. Besides, in the data set with Caco-2, the “Caco-2 (10-6 cm/sec)” value is recorded as 30 10-6 cm/sec.
On to `COc1cccc(C(=O)Nc2ccc3c(c2)CCN(c2nc(-c4ccccc4)cs2)C3)c1-c1ccc(C(F)(F)F)cc1` [Compound 14], for which the IC50 in the data set on Apo-B [1] is 0.23 µM; with ApoA1 [2], above 30 µM; in the data set with Apo-B [3] it was 4.4 µM; with ApoA1 [4] it was above 30 µM. For the same compound, the “Caco-2 (10-6 cm/sec)” value in the data set on Caco-2 is 0 10-6 cm/sec.
Consider `COc1cccc(C(=O)Nc2ccc3c(c2)CCN(C(=O)OC(C)(C)C)C3)c1-c1ccc(C(F)(F)F)cc1` [Compound 15], for which the half-inhibitory concentration (IC50) in the data set on Apo-B [1] is 0.006 µM; with ApoA1 [2] it was above 30 µM; in the data set with Apo-B [3], 0.06 µM; with ApoA1 [4], above 30 µM. In addition, in the data set on Caco-2, the “Caco-2 (10-6 cm/sec)” value is reported as 0 10-6 cm/sec.
Regarding `COc1cccc(C(=O)Nc2ccc3c(c2)CCN(C(=O)Oc2ccc(F)cc2)C3)c1-c1ccc(C(F)(F)F)cc1` [Compound 16], the IC50 in the data set with Apo-B [1] is 0.0023 µM; in the data set with ApoA1 [2] it was above 30 µM; with Apo-B [3], 0.011 µM; with ApoA1 [4], above 30 µM. For the same compound, the “Caco-2 (10-6 cm/sec)” value in the data set on Caco-2 was 0 10-6 cm/sec.
With `CC(C)Oc1cccc(C(=O)Nc2ccc3c(c2)CCN(C(=O)Oc2ccccc2)C3)c1-c1ccc(C(F)(F)F)cc1` [Compound 17], the IC50 was 0.0007 µM in the data set with Apo-B [1], above 30 µM with ApoA1 [2], 0.016 µM in the data set on Apo-B [3] and above 30 µM in the data set on ApoA1 [4]. For the same compound, in the data set on Caco-2, the “Caco-2 (10-6 cm/sec)” value was 0 10-6 cm/sec.

As usually defined, the IC50 is the midpoint of a concentration-inhibition curve. A lower IC50 goes with greater potency in that assay.

The values are drawn from patent US9656960B2, “Inhibitors of microsomal triglyceride transfer protein and apo-B secretion” (Surface Logix, Inc., priority 2005, dated 2017).
